Key:
[1] = system: CT-26 mouse colon adenocarcinoma; test: Antitumor activity of Compound B alone and with anti-PD-1 in the CT-26 model; type: in vivo, BALB/c mice
Method: (§1) The antitumor activity of Compound B as a single agent and combined with a mouse anti-PD-1 antibody was evaluated in the CT-26 mouse colon adenocarcinoma model grown in BALB/c mice. Mice were inoculated subcutaneously in the right flank with 5×10^5 tumor cells. When tumors reached an average size of 71 mm^3 (6 days after tumor cell inoculation) dosing was initiated. The dosing regimens in the 8 separate cohorts comprising 10 mice each are as follows: […]

CT26 tumor cells = test: CT26 re-inoculation of complete responders versus tumor-naive mice; type: in vivo; conditions: complete responders compared with 6 tumor-naive mice
Description: CT26 tumor cells were inoculated into 6 tumor-naive mice or complete responders of CT26 tumor-bearing mice previously treated with Compound B and anti-PD-1 alone or in combination.

[2] = system: CT-26 mouse colon adenocarcinoma; test: Antitumor activity of Compound B alone and with anti-PD1 in the CT-26 model, additional experiment; type: in vivo, BALB/c mice; conditions: CT-26 tumors; Compound B 15 mg/kg BID po; anti-PD1 10 mg/kg ip BIW; n=7/group; FIG. 5
Method: as §1, with “mouse anti-PD1” for “mouse anti-PD-1”, “BALB/c mice in an additional experiment.” for “BALB/c mice.”, “of 91” for “of 71”, “mm^3” for “mm^3 (6 days after tumor cell inoculation)”, “the 4” for “the 8”, “comprising 7” for “comprising 10”

4T1 mouse breast cancer [3] = test: Antitumor activity of Compound B alone and with anti-CTLA4 in the 4T1 model; type: in vivo, BALB/c mice; conditions: 4T1 tumors; Compound B 15 mg/kg BID; n=10/group; FIG. 3
Description: Mice were inoculated subcutaneously in the right flank with 3×10^5 tumor cells. When tumors reached an average size of 100 mm^3 (7 days after tumor cell inoculation) dosing was initiated.

4T1 mouse breast cancer [4] = test: Antitumor activity of Compound B alone and with anti-PD1 in the 4T1 model, additional experiment; type: in vivo, BALB/c mice; conditions: 4T1 tumors; Compound B 15 mg/kg BID po; anti-PD1 10 mg/kg ip BIW; n=7/group; FIG. 6
Method: The antitumor activity of Compound B as a single agent and combined with a mouse anti-PD1 antibody was evaluated in the 4T1 mouse breast cancer model grown in BALB/c mice in an additional experiment. Mice were inoculated subcutaneously in the right flank with 3×10^5 tumor cells. When tumors reached an average size of 97 mm^3 dosing was initiated. The dosing regimens in the 4 separate cohorts comprising 7 mice each are as follows: […]

CT-26 tumors = test: Immune cell composition of CT-26 tumors by flow cytometry; type: in vivo, BALB/c mice; conditions: after 7 days of dosing, Compound B 15 mg/kg BID, anti-PD1 10 mg/kg Q3D
Method: The immune cell composition of Compound B as a single agent and combined with a mouse anti-PD1 antibody was evaluated in the CT-26 mouse colon adenocarcinoma model grown in BALB/c mice. Mice were inoculated subcutaneously in the right flank with 5×10^5 tumor cells. When tumors reached an average size of 85 mm^3 dosing was initiated. The dosing regimens in the 4 separate cohorts comprising 10 mice each are listed as follows:
After dosing animals for 7 days, tumors were resected and used to prepare single cell suspensions. Live cells representing tumor and immune cells were stained with cocktails of antibodies targeting multiple immune cell markers (anti-CD45, anti-CD3, anti-CD4, anti-CD8, anti-CD25, anti-FoxP3, anti-PD-1, anti-CD11c) conjugated to different fluorescent tags. The stained cells were fixed in 4% paraformaldehyde and quantified using a multi-color flow cytometer (Fortessa). The data was analyzed with FloJo software.

[5] = 99 days after tumor inoculation

C[C@H](NC(=O)c1cc(Cl)cnc1Oc1cccc(F)c1)c1ccc(C(=O)O)cc1 [Compound B]
mice still alive [1, 5]: 1 out of 10
mice tumor free [1, 5]: 1 out of 10
tumor growth kinetics during the period of dosing ([1]; CT-26 tumors, Compound B 15 mg/kg QD and BID p.o., anti-PD-1 10 mg/kg i.p., n=10/group, FIG. 1): not notably different from the vehicle treated mice
growth of re-inoculated CT26 in complete responders (CT26 tumor cells): decreased the growth of CT26 relative to naive mice
tumor growth kinetics during the period of dosing [2]: less than that of the vehicle group
tumor growth kinetics during the period of dosing (4T1 mouse breast cancer [3]): decreased relative to the vehicle treated mice
tumor growth kinetics during the period of dosing (4T1 mouse breast cancer [4]): less than that of the vehicle group and anti-PD1 when dosed alone
percentage of dendritic cells (CD45, CD11c positive) (CT-26 tumors; FIG. 7b): increased percentage
regulatory T cells (CD45, CD4, FoxP3, CD25 positive) (CT-26 tumors; versus vehicle, FIG. 7a): significant decrease

Source: patent US10973834B2, “EP4 inhibitors and use thereof” (Arrys Therapeutics, Inc., priority 2018, dated 2021)
